According to US20250009742A1 (priority 2021, published 2025):

system: intracellular HBV DNA; test: Real-time PCR for intracellular HBV DNA in HepAD38 cells; type: cell-based; conditions: 65 hours treatment, read-out: IC50
Description: HepAD38 cells were cultured in DMEM medium (Welgene) supplemented with 200 unit/mL penicillin, 200 μg/mL streptomycin, and 10% FBS. During maintenance and passage, the cells were cultured together with 0.4 μg/mL tetracycline. Two days before the treatment with compounds for inducing HBV replication was started, the medium was replaced with a tetracycline-free complete growth medium. […]
HepAD38 cells were treated with a compound for 65 hours and then recovered, and intracellular HBV DNA was extracted therefrom according to the protocol in the DNeasy Blood & Tissue Kit (Qiagen). The primers and probes used to quantify HBV DNA were 5′-[…]-3′, 5′-[…]-3′, and 5′-/56-FAM/TGT CCT GGT/ZEN/TAT CGC TGG ATG TGT CT/3IABkFQ/-3′. The HBV DNA was amplified by real-time PCR assay using LightCycler 480 (Roche) (J. Virol., 2018, 92(16):e00339-18). All of the processes were confirmed in duplicate.

Compound	IC50
3-(6-fluoropyridin-3-yl)-1-(2-methoxypyrimidin-5-yl)-1-((5-(trifluoromethyl)-1H-pyrazol-3-yl)methyl)urea [Example 184]	0.25 µM

same assay, conditions: Hepatitis B virus, HePAD38, 65 h, 65 hours treatment

Compound	IC50
COc1ncc(N(Cc2cc(C(F)(F)F)[nH]n2)C(=O)NC23CC(C2)C3)cn1 [Example 1, 3-(bicyclo[1.1.1]pentan-1-yl)-1-(2-methoxypyrimidin-5-yl)-1-((5-(trifluoromethyl)-1H-pyrazol-3-yl)methyl)urea]	> 1.1 µM
COc1ncc(N(Cc2cc(C(F)(F)F)[nH]n2)C(=O)Nc2cncnc2)cn1 [Example 2, 1-(2-methoxypyrimidin-5-yl)-3-(pyrimidin-5-yl)-1-((5-(trifluoromethyl)-1H-pyrazol-3-yl)methyl)urea]	> 1.1 µM
COc1ncc(N(Cc2cc(C(F)(F)F)[nH]n2)C(=O)Nc2ccnc(Br)c2F)cn1 [Example 4, 3-(2-bromo-3-fluoropyridin-4-yl)-1-(2-methoxypyrimidin-5-yl)-1-((5-(trifluoromethyl)-1H-pyrazol-3-yl)methyl)urea]	0.021 µM
COc1ncc(N(Cc2cc(C(F)(F)F)[nH]n2)C(=O)Nc2cccc(Cl)n2)cn1 [Example 5, 3-(6-chloropyridin-2-yl)-1-(2-methoxypyrimidin-5-yl)-1-((5-(trifluoromethyl)-1H-pyrazol-3-yl)methyl)urea]	0.38 µM
COc1ncc(N(Cc2cc(C(F)(F)F)[nH]n2)C(=O)Nc2ccc(Cl)c(C#N)n2)cn1 [Example 8, 3-(5-chloro-6-cyanopyridin-2-yl)-1-(2-methoxypyrimidin-5-yl)-1-((5-(trifluoromethyl)-1H-pyrazol-3-yl)methyl)urea]	> 1.1 µM
COc1ncc(N(Cc2cc(C(F)(F)F)[nH]n2)C(=O)Nc2cc(F)c(F)c(Cl)c2)cn1 [Example 11, 3-(3-chloro-4,5-difluorophenyl)-1-(2-methoxypyrimidin-5-yl)-1-((5-(trifluoromethyl)-1H-pyrazol-3-yl)methyl)urea]	0.01 µM
COc1ncc(N(Cc2cc(C(F)F)[nH]n2)C(=O)Nc2cc(F)c(F)c(Cl)c2)cn1 [Example 12, 3-(3-chloro-4,5-difluorophenyl)-1-((5-(difluoromethyl)-1H-pyrazol-3-yl)methyl)-1-(2-methoxypyrimidin-5-yl)urea]	0.045 µM
CC(=O)c1cc(N(Cc2n[nH]c3c2CCOC3)C(=O)Nc2ccc(F)c(Cl)c2)ccn1 [Example 22, 1-(2-acetylpyridin-4-yl)-3-(3-chloro-4-fluorophenyl)-1-((1,4,5,7-tetrahydropyrano[3,4-c]pyrazol-3-yl)methyl)urea]	> 1.1 µM
CC12CC(N(Cc3cc(C(F)(F)F)[nH]n3)C(=O)Nc3ccc(F)c(Cl)c3)(C1)C2 [Example 27, 3-(3-chloro-4-fluorophenyl)-1-(3-methylbicyclo[1.1.1]pentan-1-yl)-1-((5-(trifluoromethyl)-1H-pyrazol-3-yl)methyl)urea]	0.16 µM
COc1ncc(N(Cc2cc(C(F)F)[nH]n2)C(=O)Nc2ccc(F)c(Cl)c2)cn1 [Example 84, 3-(3-chloro-4-fluorophenyl)-1-((5-(difluoromethyl)-1H-pyrazol-3-yl)methyl)-1-(2-methoxypyrimidin-5-yl)urea]	0.017 µM
CCOCCc1c(CN(C(=O)Nc2ccc(F)c(Cl)c2)c2ccc(OC)nc2)n[nH]c1C(F)(F)F [Example 85, 3-(3-chloro-4-fluorophenyl)-1-((4-(2-ethoxyethyl)-5-(trifluoromethyl)-1H-pyrazol-3-yl)methyl)-1-(6-methoxypyridin-3-yl)urea]	0.23 µM
COc1ccc(N(Cc2n[nH]c(C(F)(F)F)c2CCO)C(=O)Nc2ccc(F)c(Cl)c2)cn1 [Example 86, 3-(3-chloro-4-fluorophenyl)-1-((4-(2-hydroxyethyl)-5-(trifluoromethyl)-1H-pyrazol-3-yl)methyl)-1-(6-methoxypyridin-3-yl)urea]	0.016 µM
COc1ccc(N(Cc2n[nH]c(C(F)(F)F)c2CC2OC(C)(C)C(C)(C)O2)C(=O)Nc2ccc(F)c(Cl)c2)cn1 [Example 87, 3-(3-chloro-4-fluorophenyl)-1-(6-methoxypyridin-3-yl)-1-((4-((4,4,5,5-tetramethyl-1,3-dioxolan-2-yl)methyl)-5-(trifluoromethyl)-1H-pyrazol-3-yl)methyl)urea]	0.034 µM
COc1ccc(N(Cc2n[nH]c(C(F)F)c2OC)C(=O)Nc2ccc(F)c(Cl)c2)cn1 [Example 100, 3-(3-chloro-4-fluorophenyl)-1-((5-(difluoromethyl)-4-methoxy-1H-pyrazol-3-yl)methyl)-1-(6-methoxypyridin-3-yl)urea]	0.036 µM
COc1ncc(N(Cc2n[nH]c(C(F)(F)F)c2CC(C)(C)O)C(=O)Nc2ccc(F)c(Cl)c2)cn1 [Example 101, 3-(3-chloro-4-fluorophenyl)-1-((4-(2-hydroxy-2-methylpropyl)-5-(trifluoromethyl)-1H-pyrazol-3-yl)methyl)-1-(2-methoxypyrimidin-5-yl)urea]	> 1.1 µM
COc1ncc(N(Cc2n[nH]c(C(F)F)c2CC(C)(C)O)C(=O)Nc2ccc(F)c(Cl)c2)cn1 [Example 103, 3-(3-chloro-4-fluorophenyl)-1-((5-(difluoromethyl)-4-(2-hydroxy-2-methylpropyl)-1H-pyrazol-3-yl)methyl)-1-(2-methoxypyrimidin-5-yl)urea]	> 1.1 µM
COc1ncc(N(Cc2cc(C#N)[nH]n2)C(=O)Nc2ccc(F)c(Cl)c2)cn1 [Example 104, 3-(3-chloro-4-fluorophenyl)-1-((5-cyano-1H-pyrazol-3-yl)methyl)-1-(2-methoxypyrimidin-5-yl)urea]	0.027 µM
COc1ncc(N(Cc2cc(C(F)(F)F)[nH]n2)C(=O)Nc2ccc(F)c(Cl)n2)cn1 [Example 106, 3-(6-chloro-5-fluoropyridin-2-yl)-1-(2-methoxypyrimidin-5-yl)-1-((5-(trifluoromethyl)-1H-pyrazol-3-yl)methyl)urea]	0.12 µM
COc1ncc(N(Cc2cc(C(F)(F)F)[nH]n2)C(=O)Nc2cnc(F)c(Cl)c2)cn1 [Example 107, 3-(5-chloro-6-fluoropyridin-3-yl)-1-(2-methoxypyrimidin-5-yl)-1-((5-(trifluoromethyl)-1H-pyrazol-3-yl)methyl)urea]	0.062 µM
N#Cc1cc(N(Cc2n[nH]c3c2COCC3)C(=O)Nc2ccc(F)c(Cl)c2)ccn1 [Example 123, 3-(3-chloro-4-fluorophenyl)-1-(2-cyanopyridin-4-yl)-1-((1,4,6,7-tetrahydropyrano[4,3-c]pyrazol-3-yl)methyl)urea]	0.249 µM
N#Cc1ccc(N(Cc2n[nH]c3c2CCCO3)C(=O)Nc2ccc(F)c(Cl)c2)cn1 [Example 124, 3-(3-chloro-4-fluorophenyl)-1-(6-cyanopyridin-3-yl)-1-((1,4,5,6-tetrahydropyrano[2,3-c]pyrazol-3-yl)methyl)urea]	0.047 µM
N#Cc1ccc(N(Cc2cc(C(F)F)[nH]n2)C(=O)Nc2ccc(F)c(Cl)c2)cn1 [Example 126, 3-(3-chloro-4-fluorophenyl)-1-(6-cyanopyridin-3-yl)-1-((5-(difluoromethyl)-1H-pyrazol-3-yl)methyl)urea]	0.54 µM
O=C(Nc1ccc(F)c(Cl)c1)N(Cc1cc(C(F)(F)F)[nH]n1)C12CC(C1)C2 [Example 137, 1-(bicyclo[1.1.1]pentan-1-yl)-3-(3-chloro-4-fluorophenyl)-1-((5-(trifluoromethyl)-1H-pyrazol-3-yl)methyl)urea]	0.37 µM
COc1ncc(N(Cc2cc(C(F)F)[nH]n2)C(=O)Nc2cc(C)c(F)c(Cl)c2)cn1 [Example 139, 3-(3-chloro-4-fluoro-5-methylphenyl)-1-((5-(difluoromethyl)-1H-pyrazol-3-yl)methyl)-1-(2-methoxypyrimidin-5-yl)urea]	0.04 µM
COc1ncc(N(Cc2cc(C(F)(F)F)[nH]n2)C(=O)Nc2cc(C)c(F)c(Cl)c2)cn1 [Example 140, 3-(3-chloro-4-fluoro-5-methylphenyl)-1-(2-methoxypyrimidin-5-yl)-1-((5-(trifluoromethyl)-1H-pyrazol-3-yl)methyl)urea]	0.037 µM
COc1ncc(N(Cc2cc(C(F)(F)F)[nH]n2)C(=O)Nc2nc(Cl)cc(C)c2F)cn1 [Example 141, 3-(6-chloro-3-fluoro-4-methylpyridin-2-yl)-1-(2-methoxypyrimidin-5-yl)-1-((5-(trifluoromethyl)-1H-pyrazol-3-yl)methyl)urea]	0.42 µM
COc1ncc(N(Cc2cc(C(F)(F)F)[nH]n2)C(=O)Nc2cnc(Cl)nc2)cn1 [Example 143, 3-(2-chloropyrimidin-5-yl)-1-(2-methoxypyrimidin-5-yl)-1-((5-(trifluoromethyl)-1H-pyrazol-3-yl)methyl)urea]	> 1.1 µM
COc1ncc(N(Cc2cc(C(F)F)[nH]n2)C(=O)Nc2cccc(C#N)c2)cn1 [Example 147, 3-(3-cyanophenyl)-1-((5-(difluoromethyl)-1H-pyrazol-3-yl)methyl)-1-(2-methoxypyrimidin-5-yl)urea]	0.08 µM
COc1ncc(N(Cc2cc(C(F)(F)F)[nH]n2)C(=O)Nc2cc(F)c(F)c(C#N)c2)cn1 [Example 149, 3-(3-cyano-4,5-difluorophenyl)-1-(2-methoxypyrimidin-5-yl)-1-((5-(trifluoromethyl)-1H-pyrazol-3-yl)methyl)urea]	0.6 µM
COc1ncc(N(Cc2cc(C(F)F)[nH]n2)C(=O)Nc2cc(F)c(F)c(C#N)c2)cn1 [Example 150, 3-(3-cyano-4,5-difluorophenyl)-1-((5-(difluoromethyl)-1H-pyrazol-3-yl)methyl)-1-(2-methoxypyrimidin-5-yl)urea]	> 1.1 µM
